# From patent publication US9663496B2, “AMPK-activating heterocyclic compounds and methods for using the same” (Rigel Pharmaceuticals, Inc., priority 2010, dated 2017)
# Target: AMPK
# Experiment: AMPK activation, enzyme-linked immunosorbent assay
# Format: biochemical
# Conditions: EC50 for AMPK activation, ELISA
# Experimental: Compounds were assayed for their ability to activate AMPK using an enzyme-linked immunosorbent assay. Reagents and procedures for measuring AMPK activation are well known and kits for AMPK activation assays are commercially available.
row,SMILES,EC50
1,"O=C(NC1CCN(Cc2ccccc2)CC1)c1ccc(C(=O)N2CCN(c3ccccc3)CC2)cn1 [Compound 97, N-(1-benzylpiperidin-4-yl)-5-(4-phenylpiperazine-1-carbonyl)picolinamide]",1000 to 5000 nM
2,"N#Cc1ccc(CN2CCC(NC(=O)c3ccc(Nc4ccc(-c5ccccc5)cc4)cn3)CC2)cc1 [Compound 109, 5-(biphenyl-4-ylamino)-N-(1-(4-cyanobenzyl)piperidin-4-yl)picolinamide]",5000 to 10000 nM
3,"COc1ccc(C(=O)C2CCN(C(=O)c3ccc(C(=O)NC4CCN(Cc5ccc(NC(=O)CCOCCOCCOCCNC(=O)CCCC[C@@H]6SC[C@@H]7NC(=O)N[C@@H]76)cc5)CC4)nc3)CC2)cc1 [Compound 403, 5-(4-(4-methoxybenzoyl)piperidine-1-carbonyl)-N-(1-(4-(14-oxo-18-((3aS,4S,6aR)-2-oxohexahydro-1H-thieno[3,4-d]imidazol-4-yl)-4,7,10-trioxa-13-azaoctadecanamido)benzyl)piperidin-4-yl)picolinamide]",> 10000 nM
4,"O=C(NCc1ccccc1)c1ccc(C(=O)N2CCN(Cc3ccc(F)cc3)CC2)cn1 [Compound 115, N-benzyl-5-(4-(4-fluorobenzyl)piperazine-1-carbonyl)picolinamide]",5000 to 10000 nM
5,"CS(=O)(=O)c1ccc(C(=O)C2CCN(C(=O)c3ccc(C(=O)NC4CCN(Cc5ccc(C#N)cc5)CC4)cn3)CC2)cc1 [Compound 221, N-(1-(4-cyanobenzyl)piperidin-4-yl)-6-(4-(4-(methylsulfonyl)benzoyl)piperidine-1-carbonyl)nicotinamide]",1000 to 5000 nM
6,"CN1CCN(c2ccc(C(=O)C3CCN(C(=O)c4ccc(C(=O)NC5CCN(Cc6ccc(C#N)cc6)CC5)cn4)CC3)cc2)CC1 [Compound 243, N-(1-(4-cyanobenzyl)piperidin-4-yl)-6-(4-(4-(4-methylpiperazin-1-yl)benzoyl)piperidine-1-carbonyl)nicotinamide]",< 500 nM
7,"O=C(c1ccc(Nc2ccc(Oc3ccccc3)cc2)nc1)N1CCN(Cc2ccc(F)cc2)CC1 [Compound 34, (4-(4-fluorobenzyl)piperazin-1-yl)(6-(4-phenoxyphenylamino)pyridin-3-yl)methanone]",1000 to 5000 nM
8,"N#Cc1ccc(Oc2ccc(NC(=O)c3ccc(C(=O)N4CCC(C(=O)c5ccc(F)cc5F)CC4)nc3)cn2)cc1 [Compound 463, N-(6-(4-cyanophenoxy)pyridin-3-yl)-6-(4-(2,4-difluorobenzoyl)piperidine-1-carbonyl)nicotinamide]",< 500 nM
9,"O=C(NC1CCN(Cc2ccc(F)cc2)CC1)c1ccc(C(=O)N2CCC(C(=O)c3ccc(-n4cccn4)cc3)CC2)nc1 [Compound 392, 6-(4-(4-(1H-pyrazol-1-yl)benzoyl)piperidine-1-carbonyl)-N-(1-(4-fluorobenzyl)piperidin-4-yl)nicotinamide]",< 500 nM
10,"O=C(NC1CCN(Cc2ccccc2)CC1)c1ccc(C(=O)N2CCN(c3ccncc3)CC2)cn1 [Compound 96, N-(1-benzylpiperidin-4-yl)-5-(4-(pyridin-4-yl)piperazine-1-carbonyl)picolinamide]",> 10000 nM
11,"O=C(Nc1ccc(Oc2ccc(F)cc2)nc1)c1ccc(C(=O)N2CCC(C(=O)c3ccc(F)cc3F)CC2)nc1 [Compound 348, 6-(4-(2,4-difluorobenzoyl)piperidine-1-carbonyl)-N-(6-(4-fluorophenoxy)pyridin-3-yl)nicotinamide]",< 500 nM
12,"COc1ccc(OC2CCN(C(=O)c3ccc(C(=O)N[C@H]4CC[C@@H](Oc5ccc(C#N)cc5)CC4)nc3)CC2)cc1 [Compound 174, N-((cis)-4-(4-cyanophenoxy)cyclohexyl)-5-(4-(4-methoxyphenoxy)piperidine-1-carbonyl)picolinamide]",< 500 nM
13,"COc1ccc(C(=O)C2CCN(C(=O)c3ccc(C(=O)Nc4ccc(S(=O)(=O)c5ccc(F)cc5)nc4)cn3)CC2)cc1 [Compound 467, N-(6-(4-fluorophenylsulfonyl)pyridin-3-yl)-6-(4-(4-methoxybenzoyl)piperidine-1-carbonyl)nicotinamide]",1000 to 5000 nM
14,"COc1ccc(OC2CCN(C(=O)c3ccc(C(=O)N[C@H]4CC[C@@H](Oc5ccc(OC)cc5)CC4)nc3)CC2)cc1 [Compound 186, N-((cis)-4-(4-methoxyphenoxy)cyclohexyl)-5-(4-(4-methoxyphenoxy)piperidine-1-carbonyl)picolinamide]",< 500 nM
15,"O=C(NC1CCN(Cc2ccc(F)cc2)CC1)c1ccc(C(=O)N2CCC(Oc3ccc(C(F)(F)F)cc3)CC2)cn1 [Compound 179, N-(1-(4-fluorobenzyl)piperidin-4-yl)-5-(4-(4-(trifluoromethyl)phenoxy)piperidine-1-carbonyl)picolinamide]",< 500 nM
16,"COc1ccc(C(=O)C2CCN(C(=O)c3ccc(C(=O)N(C)C4CCN(Cc5ccc(OC(F)(F)F)cc5)CC4)cn3)CC2)cc1 [Compound 483, 6-(4-(4-methoxybenzoyl)piperidine-1-carbonyl)-N-methyl-N-(1-(4-(trifluoromethoxy)benzyl)piperidin-4-yl)nicotinamide]",< 500 nM
17,"O=C(Nc1ccc(Oc2ccc(F)cc2)nc1)c1ccc(C(=O)N2CCC(Oc3ccc(F)cc3)CC2)cn1 [Compound 273, 5-(4-(4-fluorophenoxy)piperidine-1-carbonyl)-N-(6-(4-fluorophenoxy)pyridin-3-yl)picolinamide]",< 500 nM
18,"N#Cc1ccc(CN2CCC(NC(=O)c3ccc(-c4cn(Cc5ccccc5)nn4)cn3)CC2)cc1 [Compound 121, 5-(1-benzyl-1H-1,2,3-triazol-4-yl)-N-(1-(4-cyanobenzyl)piperidin-4-yl)picolinamide]",1000 to 5000 nM
19,"COc1ccc(C(=O)C2CCN(C(=O)c3ccc(C(=O)N[C@H]4CCN(Cc5ccc(C#N)cc5)C[C@@H]4F)cn3)CC2)cc1 [Compound 453, N-((3S,4S)-1-(4-cyanobenzyl)-3-fluoropiperidin-4-yl)-6-(4-(4-methoxybenzoyl)piperidine-1-carbonyl)nicotinamide]",< 500 nM
20,"N#Cc1ccc(Oc2ccc(NC(=O)c3ccc(C(=O)N4CCN(Cc5ccc(F)cc5)CC4)nc3)cn2)cc1 [Compound 476, N-(6-(4-cyanophenoxy)pyridin-3-yl)-6-(4-(4-fluorobenzyl)piperazine-1-carbonyl)nicotinamide]",< 500 nM
21,"COc1ccc(C(=O)C2CCN(C(=O)c3ccc(C(=O)NC4CCN(Cc5ccc(F)cc5)CC4)cn3)CC2)cc1 [Compound 317, N-(1-(4-fluorobenzyl)piperidin-4-yl)-6-(4-(4-methoxybenzoyl)piperidine-1-carbonyl)nicotinamide]",< 500 nM
22,"N#Cc1ccc(CN2CCC(NC(=O)c3ccc(C(=O)N4CCCC(Oc5ccc(C#N)cc5)C4)cn3)CC2)cc1 (stereo not drawn) [Compound 137, N-(1-(4-cyanobenzyl)piperidin-4-yl)-5-(3-(4-cyanophenoxy)piperidine-1-carbonyl)picolinamide]",< 500 nM
23,"O=C(NC1CCN(Cc2ccc(N3CCCC3)cc2)CC1)c1ccc(C(=O)N2CCC(C(=O)c3ccc(N4CCCC4)cc3)CC2)nc1 [Compound 444, 6-(4-(4-(pyrrolidin-1-yl)benzoyl)piperidine-1-carbonyl)-N-(1-(4-(pyrrolidin-1-yl)benzyl)piperidin-4-yl)nicotinamide]",< 500 nM

# Other lines, results leading:
row,EC50,SMILES
1,< 500 nM,"N#Cc1ccc(CN2CCC(NC(=O)c3ccc(C(=O)N4CCC(Oc5ccc(NC(=O)C6CC6)cc5)CC4)nc3)CC2)cc1 [Compound 409, N-(1-(4-cyanobenzyl)piperidin-4-yl)-6-(4-(4-(cyclopropane-carboxamido)phenoxy)piperidine-1-carbonyl)nicotinamide]"
2,< 500 nM,"N#Cc1ccc(CN2CCC(NC(=O)c3ccc(C(=O)N4CCN(c5ccc(C#N)cc5)CC4)cn3)CC2)cc1 [Compound 340, N-(1-(4-cyanobenzyl)piperidin-4-yl)-5-(4-(4-cyanophenyl)piperazine-1-carbonyl)picolinamide]"
3,< 500 nM,"CS(=O)(=O)c1ccc(C(=O)C2CCN(C(=O)c3ccc(C(=O)NC4CCN(Cc5ccc(N6CCCC6)cc5)CC4)nc3)CC2)cc1 [Compound 233, 5-(4-(4-(methylsulfonyl)benzoyl)piperidine-1-carbonyl)-N-(1-(4-(pyrrolidin-1-yl)benzyl)piperidin-4-yl)picolinamide]"
4,< 500 nM,N#Cc1ccc(O[C@H]2CC[C@@H](NC(=O)c3ccc(C(=O)N4CCC(C(=O)c5ccc(F)cc5)CC4)cn3)CC2)cc1 [Compound 151]
5,< 500 nM,"N#Cc1ccc(CN2CCC(NC(=O)c3ccc(N4CCC(Oc5ccc(C(F)(F)F)cc5)CC4)nn3)CC2)cc1 [Compound 361, N-(1-(4-cyanobenzyl)piperidin-4-yl)-6-(4-(4-(trifluoromethyl)phenoxy)piperidin-1-yl)pyridazine-3-carboxamide]"
6,< 500 nM,"N#Cc1ccc(O[C@H]2CC[C@@H](NC(=O)c3ccc(C(=O)N4CCC(Oc5cccc(NC(=O)C6CC6)c5)CC4)nc3)CC2)cc1 [Compound 434, N-((cis)-4-(4-cyanophenoxy)cyclohexyl)-6-(4-(3-(cyclopropanecarboxamido)phenoxy)piperidine-1-carbonyl)nicotinamide]"
7,< 500 nM,"N#Cc1ccc(CN2CCC(NC(=O)c3ccc(NC4CCN(c5ccc(C#N)cc5)CC4)cn3)CC2)cc1 [Compound 267, N-(1-(4-cyanobenzyl)piperidin-4-yl)-5-(1-(4-cyanophenyl)piperidin-4-ylamino)picolinamide]"
8,< 500 nM,"N#Cc1ccc(CN2CCC(NC(=O)c3ccc(C(=O)N4CCC(Oc5cccc(C#N)c5)CC4)cn3)CC2)cc1 [Compound 155, N-(1-(4-cyanobenzyl)piperidin-4-yl)-5-(4-(3-cyanophenoxy)piperidine-1-carbonyl)picolinamide]"
9,< 500 nM,"N#Cc1ccc(CN2CCC(NC(=O)c3ccc(C(=O)N4CCN(c5ccc(S(=O)(=O)C(F)(F)F)cc5)CC4)cn3)CC2)cc1 [Compound 257, N-(1-(4-cyanobenzyl)piperidin-4-yl)-5-(4-(4-(trifluoromethylsulfonyl)phenyl)piperazine-1-carbonyl)picolinamide]"
10,< 500 nM,"COc1ccc(CN2CCC(NC(=O)c3ccc(C(=O)N4CCN(Cc5ccc(F)cc5)CC4)cn3)CC2)cc1 [Compound 117, 5-(4-(4-fluorobenzyl)piperazine-1-carbonyl)-N-(1-(4-methoxybenzyl)piperidin-4-yl)picolinamide]"
